This is an account of results in patent US20210198204A1, “PRODRUGS OF KALLIKREIN INHIBITORS” (BioCryst Pharmaceuticals, Inc., priority 2016, published 2021).

The structures appear in SMILES notation.

The series in a line: Plasma pharmacokinetics of the parent compound after a single oral dose of prodrug. The settings on record: single oral dose 10 mg/kg, fasted male Sprague Dawley rats; plasma analyzed for the parent compound; study duration 8 h. The series is classed as in vivo. The method, then: Plasma pharmacokinetics of compounds was determined using three male Sprague Dawley rats following a single oral dose administration. All animals were placed in a rat metabolic cage, isolated, and fasted approximately 15 hours prior to dosing. Identifying markers were placed on each animal. Each animal was weighed prior to dose administration. Animals were administered orally with a solution formulation of test compound either in water or a combination of water/propylene glycol, at a dose of 10 mg/kg. Gavage needles were attached to syringes and filled with appropriate amount of test article to be dosed. Blood samples (approximately 500 μL) were collected from three rats at pre-dose (time 0), 0.5, 1, 2, 4, 8, 12 and 24 hr, respectively, depending on study duration. Samples were collected into labeled micro centrifuge tubes containing (heparin solution) as an anticoagulant. Plasma was immediately harvested from the blood by centrifugation at 14,000 rpm for 3 min at 4° C., and stored below −70° C. until bioanalysis. Individual plasma samples were analyzed for the parent compound, 3-[2-(4-carbamimidoyl-phenylcarbamoyl)-5-methoxy-4-vinyl-phenyl]-6-(cyclopropylmethyl-carbamoyl)-pyridine-2-carboxylic acid. As shown in Table-1, the test compounds yielded varying degrees of exposure to the parent compound. The test compounds generally provided for improved bioavailability of the parent compound as compared to dosing of the parent compound in aqueous solutions.
Take `C=Cc1cc(C(=O)Nc2ccc(C(=N)NC(=O)OCCCCCC)cc2)c(-c2ccc(C(=O)NCC3CC3)nc2C(=O)OCc2oc(=O)oc2C)cc1OC` [Compound 35a, (5-methyl-2-oxo-1,3-dioxol-4-yl)methyl 6-((cyclopropylmethyl)carbamoyl)-3-(2-((4-(N-((hexyloxy)carbonyl)carbamimidoyl)phenyl)carbamoyl)-5-methoxy-4-vinylphenyl)picolinate]: the “AUC0-last hour (area under the curve)” value is “B (B = 1,001-10,000 ng/mL)”.
The result for `C=Cc1cc(C(=O)Nc2ccc(C(=N)NC(=O)OCCCCCC)cc2)c(-c2ccc(C(=O)NCC3CC3)nc2C(=O)OC(C)OC(=O)C(C)C)cc1OC` (stereo not drawn) [Compound 36b, 1-(isobutyryloxy)ethyl 6-((cyclopropylmethyl)carbamoyl)-3-(2-((4-(N-((hexyloxy)carbonyl)carbamimidoyl)phenyl)carbamoyl)-5-methoxy-4-vinylphenyl)picolinate] reads “C (C >10,000 ng/mL)”; that for `C=Cc1cc(C(=O)Nc2ccc(C(=N)N)cc2)c(-c2ccc(C(=O)NCC3CC3)nc2C(=O)OCOC(=O)CN)cc1OC.Cl` [Compound 37e, (2-aminoacetoxy)methyl 3-(2-((4-carbamimidoylphenyl)carbamoyl)-5-methoxy-4-vinylphenyl)-6-((cyclopropylmethyl)carbamoyl)picolinate Hydrochloride], “B (B = 1,001-10,000 ng/mL)”; that for `C=Cc1cc(C(=O)Nc2ccc(C(=N)NC(=O)OCCCCCC)cc2)c(-c2ccc(C(=O)NCC3CC3)nc2C(=O)OC(C)OC(=O)OC(C)C)cc1OC` (stereo not drawn) [Compound 39a, 1-((isopropoxycarbonyl)oxy)ethyl 6-((cyclopropylmethyl)carbamoyl)-3-(2-((4-(N-((hexyloxy)carbonyl)carbamimidoyl)phenyl)carbamoyl)-5-methoxy-4-vinylphenyl)picolinate], “C (C >10,000 ng/mL)”.
The result for `C=Cc1cc(C(=O)Nc2ccc(C(=N)NC(=O)OCCCCCC)cc2)c(-c2ccc(C(=O)NCC3CC3)nc2C(=O)OC(C)OC(=O)OC(C)(C)C)cc1OC` (stereo not drawn) [Compound 41a, 1-((tert-butoxycarbonyl)oxy)ethyl 6-((cyclopropylmethyl)carbamoyl)-3-(2-((4-(N-((hexyloxy)carbonyl)carbamimidoyl)phenyl)carbamoyl)-5-methoxy-4-vinylphenyl)picolinate] reads “B (B = 1,001-10,000 ng/mL)”.
As for `C=Cc1cc(C(=O)Nc2ccc(C(=N)NC(=O)OCC)cc2)c(-c2ccc(C(=O)NCC3CC3)nc2C(=O)OC(C)OC(=O)C(C)C)cc1OC` (stereo not drawn) [Compound 42a, 1-(isobutyryloxy)ethyl 6-((cyclopropylmethyl)carbamoyl)-3-(2-((4-(N-(ethoxycarbonyl)carbamimidoyl)phenyl)carbamoyl)-5-methoxy-4-vinylphenyl)picolinate], the “AUC0-last hour (area under the curve)” value was “C (C >10,000 ng/mL)”.
With `C=Cc1cc(C(=O)Nc2ccc(C(=N)NC(=O)OCC)cc2)c(-c2ccc(C(=O)NCC3CC3)nc2C(=O)OC(C)OC(=O)OC(C)C)cc1OC` (stereo not drawn) [Compound 43a, 1-((isopropoxycarbonyl)oxy)ethyl 6-((cyclopropylmethyl)carbamoyl)-3-(2-((4-(N-(ethoxycarbonyl)carbamimidoyl)phenyl)carbamoyl)-5-methoxy-4-vinylphenyl)picolinate], the “AUC0-last hour (area under the curve)” value is “C (C >10,000 ng/mL)”.
The result for `C=Cc1cc(C(=O)Nc2ccc(C(=N)NC(=O)OCc3oc(=O)oc3C)cc2)c(-c2ccc(C(=O)NCC3CC3)nc2C(=O)O)cc1OC` [Compound 44b, 6-((cyclopropylmethyl)carbamoyl)-3-(5-methoxy-2-((4-(N-(((5-methyl-2-oxo-1,3-dioxol-4-yl)methoxy)carbonyl)carbamimidoyl)phenyl)carbamoyl)-4-vinylphenyl)picolinic acid] reads “A (A = 0-1,000 ng/mL)”; that for `C=Cc1cc(C(=O)Nc2ccc(C(=N)NC(=O)OCCCCCC)cc2)c(-c2ccc(C(=O)NCC3CC3)nc2C(=O)OCOC(=O)CN)cc1OC` [Compound 45b, (2-aminoacetoxy)methyl 6-((cyclopropylmethyl)carbamoyl)-3-(2-((4-(N-((hexyloxy)carbonyl)carbamimidoyl)phenyl)carbamoyl)-5-methoxy-4-vinylphenyl)picolinate], “A (A = 0-1,000 ng/mL)”; that for `C=Cc1cc(C(=O)Nc2ccc(C(=N)NC(=O)OC(C)OC(C)=O)cc2)c(-c2ccc(C(=O)NCC3CC3)nc2C(=O)OC(C)OC(=O)OC(C)C)cc1OC` (stereo not drawn) [Compound 47a, 1-((isopropoxycarbonyl)oxy)ethyl 3-(2-((4-(N-((1-acetoxyethoxy)carbonyl)carbamimidoyl)phenyl)carbamoyl)-5-methoxy-4-vinylphenyl)-6-((cyclopropylmethyl)carbamoyl) picolinate], “B (B = 1,001-10,000 ng/mL)”.
As for `C=Cc1cc(C(=O)Nc2ccc(C(=N)NC(=O)OC(C)OC(C)=O)cc2)c(-c2ccc(C(=O)NCC3CC3)nc2C(=O)OC(C)OC(=O)C(C)C)cc1OC` (stereo not drawn) [Compound 48b, 1-(isobutyryloxy)ethyl 3-(2-((4-(N-((1-acetoxyethoxy)carbonyl)carbamimidoyl)phenyl)carbamoyl)-5-methoxy-4-vinylphenyl)-6-((cyclopropylmethyl)carbamoyl)picolinate], the entry is “C (C >10,000 ng/mL)”; as for `C=Cc1cc(C(=O)Nc2ccc(C(=N)NC(=O)OC(C)OC(=O)C(C)C)cc2)c(-c2ccc(C(=O)NCC3CC3)nc2C(=O)OC(C)OC(=O)OC(C)C)cc1OC` (stereo not drawn) [Compound 49a, 1-((isopropoxycarbonyl)oxy)ethyl 6-((cyclopropylmethyl)carbamoyl)-3-(2-((4-(N-((1-(isobutyryloxy)ethoxy)carbonyl)carbamimidoyl)phenyl)carbamoyl)-5-methoxy-4-vinylphenyl)picolinate], “B (B = 1,001-10,000 ng/mL)”.
As for `C=Cc1cc(C(=O)Nc2ccc(C(=N)NC(=O)OCCCCCC)cc2)c(-c2ccc(C(=O)NCC3CC3)nc2C(=O)OCOC(=O)[C@@H](N)CC(C)C)cc1OC` [Compound 50d, (S)-((2-amino-4-methylpentanoyl)oxy)methyl 6-((cyclopropylmethyl)carbamoyl)-3-(2-((4-(N-((hexyloxy)carbonyl)carbamimidoyl)phenyl)carbamoyl)-5-methoxy-4-vinylphenyl)picolinate], the entry is “B (B = 1,001-10,000 ng/mL)”; as for `C=Cc1cc(C(=O)Nc2ccc(C(=N)NO)cc2)c(-c2ccc(C(=O)NCC3CC3)nc2C(=O)OC(C)OC(=O)OC(C)C)cc1OC` (stereo not drawn) [Compound 51b, 1-((isopropoxycarbonyl)oxy)ethyl 6-((cyclopropylmethyl)carbamoyl)-3-(2-((4-(N-hydroxycarbamimidoyl)phenyl)carbamoyl)-5-methoxy-4-vinylphenyl)picolinate], “A (A = 0-1,000 ng/mL)”.
In the case of `C=Cc1cc(C(=O)Nc2ccc(-c3noc(=O)[nH]3)cc2)c(-c2ccc(C(=O)NCC3CC3)nc2C(=O)OC(C)OC(=O)OC(C)C)cc1OC` (stereo not drawn) [Compound 52b, 1-((isopropoxycarbonyl)oxy)ethyl 6-((cyclopropylmethyl)carbamoyl)-3-(5-methoxy-2-((4-(5-oxo-4,5-dihydro-1,2,4-oxadiazol-3-yl)phenyl)carbamoyl)-4-vinylphenyl)picolinate], the “AUC0-last hour (area under the curve)” value was “A (A = 0-1,000 ng/mL)”.
